Test results taken from article PMC12175907 (Science Advances, 2025).
“Also recorded” adds a separate entry of the source.

How the values were obtained:
shrews = assay: emesis, tirzepatide dose-response, shrews; format: in vivo, Suncus murinus; settings: 10, 100 and 1000 nmol/kg ip; 120 min; n = 9 per group
From the text: Adult male shrews (S. murinus) weighing ~50 to 80 g (n = 84 total) were bred and maintained in the De Jonghe Lab (University of Pennsylvania). These animals were offspring from a colony previously maintained at the University of Pittsburgh Cancer Institute (C. Horn); a Taiwanese strain was derived from stock originally supplied by the Chinese University of Hong Kong. Shrews were singly housed in plastic cages (37.3 cm by 23.4 cm by 14 cm, Innovive) under a 12-hour/12-hour light/dark cycle in a temperature-controlled and humidity-controlled environment. Animal were fed ad libitum with a mixture of feline (75%, Laboratory Feline Diet 5003, Lab Diet) and mink food (25%, High Density Ferret Diet 5LI4, Lab Diet) and had ad libitum access to tap water except where noted.
We then evaluated the emetogenic actions of tirzepatide (10, 100, and 1000 nmol/kg) or vehicle in a different cohort of shrews (n = 9). The animals were habituated to the experimental conditions as described above. Treatments were separated by 7 days. Emetic episodes were recorded and quantified as described above.

rats = assay: food and kaolin consumption and body weight in rats (semaglutide, tirzepatide); format: in vivo, Sprague-Dawley rat
From the text: Adult male Sprague-Dawley rats (Charles River) weighing ~250 to 270 g (n = 45) at arrival were housed under a 12-hour/12-hour light/dark cycle in a temperature-controlled and humidity-controlled vivarium. Rats were individually housed in hanging wire-bottom cage with ad libitum access to chow diet (Purina Lab Diet 5001) or, when noted, to high-fat/high-sugar diet (60% fat diet, 12492, Research Diets) and tap water and had ad libitum access to kaolin pellets (Research Diets, K50001). Rats were exposed to kaolin for at least 5 days prior to measuring kaolin consumption in pica testing. Kaolin intake and food consumption were measured simultaneously as the presence of kaolin in the cage, and its subsequent ingestion, has usually negligible effects on the hypophagic and body weight–lowering effects of the treatments.
GIPFA-085 (GIP-085), tirzepatide, and GLP-140 were designed and produced by Eli Lilly and Company. GIP-085, GLP-140, and semaglutide (Cayman Chemical) were dissolved in 40 mM tris-HCl buffer (pH 8) and 0.02% Tween 80. For the study in mice, all drugs were injected subcutaneously at a volume of 5 ml/kg of body weight. In rats, all drugs were injected intraperitoneally, at a volume of 1 ml/kg of body weight, except when noted. In shrews, all drugs were injected intraperitoneally at a volume of 10 ml/kg of body weight.
In two separate cohorts of rats (n = 10 per group, body weight ~ 460 ± 9 g), food consumption, kaolin intake, and body weight were measured after an intraperitoneal administration of vehicle, semaglutide (10 and 100 nmol/kg), or tirzepatide (10 and 100 nmol/kg), respectively. Food and kaolin intake were measured at 3, 6, 24, and 48 hours postinjection, and body weight was measured at 0, 24, and 48 hours. For each drug, a within-subject paradigm was used, with each round of injections separated by 7 days.

patients = settings: human, in vivo; cited from earlier work

| Molecule | emesis (shrews) | kaolin intake (rats; 100 nmol/kg ip, n = 10 per group, vs vehicle) | kaolin consumption, semaglutide vs tirzepatide (rats; 100 nmol/kg ip, n = 10 to 20 per group) | kaolin consumption vs vehicle, tirzepatide (rats; tirzepatide, rats (dose not stated at this place)) | patients reporting nausea (patients) |
| --- | --- | --- | --- | --- | --- |
| CC[C@H](C)[C@H](NC(=O)[C@H](CC(C)C)NC(=O)[C@H](Cc1c[nH]c2ccccc12)NC(=O)[C@H](CCC(N)=O)NC(=O)[C@@H](NC(=O)[C@H](Cc1ccccc1)NC(=O)[C@H](C)NC(=O)[C@H](CCCCNC(=O)COCCOCCNC(=O)COCCOCCNC(=O)CC[C@H](NC(=O)CCCCCCCCCCCCCCCCCCC(=O)O)C(=O)O)NC(=O)[C@H](CCC(N)=O)NC(=O)[C@H](C)NC(=O)[C@@H](NC(=O)[C@H](CCCCN)NC(=O)[C@H](CC(=O)O)NC(=O)[C@H](CC(C)C)NC(=O)C(C)(C)NC(=O)[C@@H](NC(=O)[C@H](CO)NC(=O)[C@H](Cc1ccc(O)cc1)NC(=O)[C@H](CC(=O)O)NC(=O)[C@H](CO)NC(=O)[C@@H](NC(=O)[C@H](Cc1ccccc1)NC(=O)[C@@H](NC(=O)CNC(=O)[C@H](CCC(=O)O)NC(=O)C(C)(C)NC(=O)[C@@H](N)Cc1ccc(O)cc1)[C@@H](C)O)[C@@H](C)O)[C@@H](C)CC)[C@@H](C)CC)C(C)C)C(=O)N[C@@H](C)C(=O)NCC(=O)NCC(=O)N1CCC[C@H]1C(=O)N[C@@H](CO)C(=O)N[C@@H](CO)C(=O)NCC(=O)N[C@@H](C)C(=O)N1CCC[C@H]1C(=O)N1CCC[C@H]1C(=O)N1CCC[C@H]1C(=O)N[C@@H](CO)C(N)=O [tirzepatide] | complete absence of emesis; also recorded: no emesis occurred; also recorded: complete absence of any emetic episode | causes significant kaolin intake | induces less kaolin consumption in rats compared to equipotent doses of semaglutide | still significantly elevated compared to vehicle-treated animals | – |
| AMG 133: bispecific molecule engineered by conjugating a GIPR antagonizing antibody with a GLP-1R agonist | – | – | – | – | 100% |
